Results: article PMC8019204 (Cancer Science, 2021)
Values joined by “and” are separate entries in the source; they are usually repeats but may differ in a detail not shown here. Identical values can stand only once. Like-named read-outs stand apart in the source and are kept apart here.

Legend:
[1] = GEOMETRY mono-1: safety; type: in vivo, human
[2] = GEOMETRY mono-1: plasma pharmacokinetics of capmatinib; type: in vivo, human; conditions: for AUC(0-t): AUC0–12, geometric mean (CV%)
[3] = test system: METΔex14‐mutated NSCLC
[4] = test system: MET‐amplified NSCLC
[5] = test system: METΔex14‐mutated NSCLC; conditions: global population, cited from earlier work
[6] = test system: MET‐amplified NSCLC; conditions: global population, cited from earlier work
[7] = single agent; Japanese patients with advanced solid tumors; cited from earlier work
[8] = 1L group, the one patient with PR
[9] = 2/3L, cohort 1a GCN ≥ 10 (n = 11)
[10] = 2/3L, cohort 1b GCN ≥ 6 to <10 (n = 1)
[11] = 2/3L, cohort 2 GCN ≥ 4 to <6 (n = 10)

CNC(=O)c1ccc(-c2cnc3ncc(Cc4ccc5ncccc5c4)n3n2)cc1F [capmatinib, Capmatinib]
Treatment‐related AE: Headache ([1]; grade 3/4, n = 45): 0 n (%) of patients | Treatment‐related AE: Hypoalbuminaemia ([1]; grade 3/4, n = 45): 0 n (%) of patients | Treatment‐related AE: Malaise ([1]; grade 3/4, n = 45): 1 (2.2) n (%) of patients | Treatment‐related AE: Nausea ([1]; grade 3/4, n = 45): 0 n (%) of patients | Treatment‐related AE: Oedema peripheral ([1]; grade 3/4, n = 45): 3 (6.7) n (%) of patients | Treatment‐related AE: Pyrexia ([1]; grade 3/4, n = 45): 0 n (%) of patients | Treatment‐related AE: Rash ([1]; grade 3/4, n = 45): 0 n (%) of patients | Treatment‐related AE: Vomiting ([1]; grade 3/4, n = 45): 1 (2.2) n (%) of patients | Any treatment‐related AE ([1]; grade 3/4, n = 45, Table 5): 25 (55.6) n (%) of patients | Patients who experienced at least one AE ([1]; of 45 patients, cutoff September 18, 2019): 45 patients | Discontinuation from treatment phase, reason: Adverse event ([1]; overall Japanese cohort (n = 45), cutoff April 15, 2019): 8 (17.8) n (%) of patients | Accumulation of exposure ([2]; 400 mg twice daily, Japanese patients): 1.41 fold | Accumulation of exposure ([2]; 400 mg twice daily, overall study result): 1.39 fold | Racc AUC0–12 (accumulation ratio), geometric mean (CV%) ([2]; cycle 1, day 15 (steady state), 400 mg twice daily, fasting, Japanese patients): 1.41 | Time at which maximum concentration was reached after administration ([2]; day 15, 400 mg twice daily, Japanese patients): ≤ 1 h | half-life ([2]; human, plasma, oral, 400 mg): 6.54 h | AUC(0-t) ([2]; human, plasma, oral, 400 mg, cycle 1, day 1, 400 mg twice daily, fasting, Japanese patients): 18200 ng·h/mL | AUC(0-t) ([2]; human, plasma, oral, 400 mg, cycle 1, day 15 (steady state), 400 mg twice daily, fasting, Japanese patients): 27000 ng·h/mL | Cmax ([2]; human, plasma, oral, 400 mg, Cmax, geometric mean (CV%), cycle 1, day 15 (steady state), 400 mg twice daily, fasting, Japanese patients): 5920 ng/mL | Best overall response: CR ([3]; 1L group (cohort 5b, n = 2)): 0 n (%) of patients | Best overall response: Non‐CR/non‐PD ([3]; 1L group (cohort 5b, n = 2)): 0 n (%) of patients | Best overall response: PD ([3]; 1L group (cohort 5b, n = 2)): 0 n (%) of patients | Best overall response: PR ([3]; 1L group (cohort 5b, n = 2)): 1 (50.0) n (%) of patients | Best overall response: SD ([3]; 1L group (cohort 5b, n = 2)): 1 (50.0) n (%) of patients | Best overall response: Unknown ([3]; 1L group (cohort 5b, n = 2)): 0 n (%) of patients | DOR [3, 8]: 4.24 months | Decrease in lesion size [3, 8]: 76.5% | Time to confirmed PD after starting capmatinib [3, 8]: 168 days and 5.5 months | DCR (BIRC) ([3]; 2/3L group (cohort 4)): 81.8% | Median PFS (BIRC) ([3]; 2/3L group (cohort 4)): 4.70 months | ORR (BIRC) ([3]; 2/3L group (cohort 4)): 36.4% | Best overall response: CR ([3]; 2/3L group (cohort 4, n = 11)): 0 n (%) of patients | Best overall response: Non‐CR/non‐PD ([3]; 2/3L group (cohort 4, n = 11)): 0 n (%) of patients | Best overall response: PD ([3]; 2/3L group (cohort 4, n = 11)): 1 (9.1) n (%) of patients | Best overall response: PR ([3]; 2/3L group (cohort 4, n = 11)): 4 (36.4) n (%) of patients | Best overall response: SD ([3]; 2/3L group (cohort 4, n = 11)): 5 (45.5) n (%) of patients | Best overall response: Unknown ([3]; 2/3L group (cohort 4, n = 11)): 1 (9.1) n (%) of patients | Median DOR (95% CI) ([3]; 2/3L group (cohort 4, n = 11)): NE (3.35–NE) | Median TTR (95% CI) ([3]; 2/3L group (cohort 4, n = 11)): NE (1.38–NE) | Probability estimate at 3 mo for TTR (95% CI) ([3]; 2/3L group (cohort 4, n = 11)): 36.4 (15.5‐70.3) | Tumor shrinkage, deep response ([3]; 2/3L group, a patient with PR): ~ 80% | Brain response per independent neuroradiologist review ([3]; 2/3L group, one patient with brain metastases, CT 12 weeks after starting capmatinib): partial resolution of brain lesions | Tumor shrinkage, deep response ([3]; one patient in each group (1L and 2/3L)): ~ 80% | Median DOR ([4]; 1L, cohort 5a GCN ≥ 10): 8.2 months | ORR (BIRC) ([4]; 1L, cohort 5a GCN ≥ 10 (n = 2)): 100% | Median DOR ([4]; 2/3L, cohort 1a GCN ≥ 10): 8.3 months | DCR (BIRC) [4, 9]: 81.8% | ORR (BIRC) [4, 9]: 45.5% | DCR (BIRC) [4, 10]: 100.0% | ORR (BIRC) [4, 10]: 0% | Median DOR ([4]; 2/3L, cohort 2 GCN ≥ 4 to <6): 9.7 | DCR (BIRC) [4, 11]: 50.0% | ORR (BIRC) [4, 11]: 10% | DCR (BIRC) ([4]; 2/3L, cohort 3 GCN < 4 (n = 6)): 66.7% | ORR (BIRC) ([4]; 2/3L, cohort 3 GCN < 4 (n = 6)): 16.7% | ORR by BIRC ([5]; first‐line, 28 patients): 68% | Median DOR in responders ([5]; first‐line): 12.6 months | Intracranial responses, share of patients ([5]; patients with evaluable brain metastases at baseline): about half | ORR by BIRC ([5]; second‐/third‐line, 69 patients): 41% | Tumor shrinkage ([5]; second‐/third‐line, in two patients): > 90% | Median DOR in responders ([5]; second‐/third‐line): 9.7 months | Median DOR ([6]; GCN ≥10, first‐line): 7.5 months | Median DOR ([6]; GCN ≥10, second/third‐line): 8.3 months | Maximum tolerated dose [7]: not identified
